According to patent US20230190745A1, “USE OF METABOLIC REGULATORS FOR THE TREATMENT OF COVID-19” (YISSUM RESEARCH DEVELOPMENT COMPANY OF THE HEBREW …, priority 2020, published 2023):
Read-outs that look alike come from different tables or passages of the source.

Key:
SARS-CoV-2 = assay: Viral load quantitative real-time PCR in SARS-CoV-2 infected NHBE cells under drug treatment; format: cell-based; settings: for reduction of SARS-CoV-2 viral load: 5 days of treatment, viral RNA vs DMSO vehicle, n=3
[1] = system: SARS-CoV-2 infected lung cells; format: cell-based; settings: 5 days exposure, vs DMSO-treated and mock-infected controls
[2] = system: SARS-CoV-2 infected primary lung cells; format: cell-based, human
[3] = system: SARS-CoV-2 infected lung cells; assay: Cell viability (Hoechst staining) of SARS-CoV-2 infected lung cells exposed to drugs; format: cell-based, human; settings: 5 days exposure
Procedure: Drug Treatments: Approximately 5×10^5 NHBE cells were infected with SARS-CoV-2 at a MOI of 2 in bronchial epithelial growth media. […] After 24 h, the media was collected and changed to bronchial epithelial growth media with the respective drug at the concentration listed above. Then, every 48 hours media was collected and replenished. The media was stored at −80° C. immediately after removal. Culture viability was assessed at the end the experiment using Hoechst staining.

COVID-19 patients [4] = assay: Observational comparison of representation of metabolic regulator users in hospital records versus COVID-19 cases (chi-squared / IRR, Table 3); format: in vivo, human; settings: for representation among COVID-19 severity indicators (hospitalization, ICU admission, deaths): chi-squared test vs general hospital medical records
COVID-19 patients [5] = assay: Retrospective cohort of hospitalized COVID-19 patients taking metabolic regulators, outcomes before PSM (Table 2); format: in vivo, human; settings: users before PSM
Procedure: Israeli Study Design and Participants: A retrospective, multi-center study was conducted in Hadassah and Ichilov medical centers. A total of 20,153 participants were diagnosed positive for SARS-COV-2 following WHO interim guidance (World Health Organization, 2020). Only patients hospitalized and diagnosed with COVID-19 were included. Participants with incomplete electronic medical records, aged less than 18, with pregnancy or severe medical conditions, including acute lethal organ injury (i.e., acute coronary syndrome, acute stroke, and severe acute pancreatitis) were excluded. The flowchart for patient inclusion is illustrated in FIG. 4J. Participants were admitted between Mar. 1, 2020, and Aug. 31, 2020 to either the Hadassah Medical Center in Jerusalem or the Tel Aviv Sourasky Medical Center. The final date of the follow up was Sep. 28, 2020. The study protocols were approved by the institutional ethics committee. Patient informed consent was waived by each ethics committee. Demographic and clinical characteristics, vital signs, laboratory tests, radiological reports, therapeutic interventions, and outcome data were extracted from electronic medical records using a standardized data collection. The laboratory data included a routine blood test, serum biochemical markers reflecting liver injury, kidney injury, and cardiac injury, lipid profile, IL-6, CRP, procalcitonin, and D-dimer were collected during hospitalization. In-hospital medication and life support intervention included the classification of the drugs, the dosage, the course of treatment, and using respiratory support were also extracted from medical records.

COVID-19 patients [6] = assay: Propensity score-matched analysis of hospitalized COVID-19 patients, outcomes after PSM (Table 5); format: in vivo, human
COVID-19 patients [7] = assay: Secondary outcomes and organ failure, incidence rate ratios and Cox hazard ratios (Table 4); format: in vivo, human
Source text: Any death that occurred was documented.

COVID-19 patients [8] = settings: 21-day hospitalization, vs PSM-matched controls
Procedure: In clinical data, continuous variables with non-normal distributions were expressed as median [IQR]. Categorical variables were expressed as number and percentage (%). […] Comparisons between groups were performed with Mann-Whitney U test for nonparametric variables and Fisher's exact test or χ2 test for categorical variables. Person-time data (Incidence) of two groups with different exposures may be expressed as a difference between incidence rates or as a ratio of incidence rates (IRRs). The IRRs of endpoint outcomes were calculated to estimate the incidence difference in absolute change in the incidence of two comparison groups. The cumulative rates of death were compared using the Kaplan-Meier curves. Dynamic changes of inflammatory factors tracking from day 0 to day 28 after admission were depicted using the Lowess model. A two-side a less than 0.05 was considered to define statistical significance. Data were analyzed in R-3.6.3 (R Foundation for Statistical Computing, Vienna, Austria) and SPSS Statistics (version 23.0, IBM, Armonk, N.Y., USA).
To study the effects of metabolic regulators on COVID-19 progression the dynamic changes in circulating C-reactive protein (CRP), neutrophils, and lymphocytes markers of SARS-CoV-2 induced immunoinflammatory response were analyzed.

[9] = physiological concentrations (Cmax): 20 μM rosiglitazone, 5 μM empagliflozin, 1 mM metformin
[10] = vs share in 249,939 patient records 2015-2020
[11] = vs PSM-matched non-treatment group
[12] = adjusted hazard ratio, mixed-effect Cox model, treatment versus non-treatment group
[13] = incidence rate in treatment group (first figure of 'x versus y')
[14] = incidence rate ratio, treatment versus non-treatment group

Clc1ccc(C(OCCN2CCCCC2)c2ccccc2)cc1 (stereo not shown) [cloperastine]
reduction of SARS-CoV-2 viral load (SARS-CoV-2; 10 μM): 3 fold | phospholipid accumulation / lipid content [1]: did not result in a reduction of lipid content | glycolytic index / increase in glycolysis ([2]; Cmax concentration, infected primary cells): did not result in a reduction of lipid content or change in the glycolytic index | cell viability [3]: without affecting cell viability

OC[C@H]1O[C@@H](c2ccc(Cl)c(Cc3ccc(O[C@H]4CCOC4)cc3)c2)[C@H](O)[C@@H](O)[C@@H]1O [empagliflozin]
effect on SARS-CoV-2 infected primary cells (FIG. 4C-G) (SARS-CoV-2; [9]): no effect

CC(C)OC(=O)C(C)(C)Oc1ccc(C(=O)c2ccc(Cl)cc2)cc1 [fenofibrate]
reduction of SARS-CoV-2 viral load (SARS-CoV-2; 20 μM fenofibrate): 2 logs | reduction of lactate to glucose ratio ([2]; SARS-CoV-2 infected primary lung cells, n=3, p<0.01): 60% | cell viability [3]: without affecting cell viability

CC(C)(Oc1ccc(C2CC2(Cl)Cl)cc1)C(=O)O (stereo not shown) [ciprofibrate]
representation among COVID-19 severity indicators (hospitalization, ICU admission, deaths) (COVID-19 patients [4]): underrepresented in ICU admissions and deaths

CCCc1nc2c(C)cc(-c3nc4ccccc4n3C)cc2n1Cc1ccc(-c2ccccc2C(=O)O)cc1 [telmisartan]
representation among COVID-19 severity indicators (hospitalization, ICU admission, deaths) (COVID-19 patients [4]): over-represented in ICU admission and deaths

CN(C)C(=N)N=C(N)N [metformin]
effect on SARS-CoV-2 infected primary cells (FIG. 4C-G) (SARS-CoV-2; [9]): no effect | representation among COVID-19 severity indicators (hospitalization, ICU admission, deaths) (COVID-19 patients [4]): significant over-representation | COVID-19 Deceased, number of patients taking the drug (COVID-19 patients [4]; of 100 COVID-19 deceased): 13 | COVID-19 Deceased, share of patients taking the drug (COVID-19 patients [4]; of 100 COVID-19 deceased): 13.00% | COVID-19 ICU, number of patients taking the drug (COVID-19 patients [4]; of 312 COVID-19 ICU patients): 42 | COVID-19 ICU, share of patients taking the drug (COVID-19 patients [4]; of 312 COVID-19 ICU patients): 13.46% | COVID-19 Hospitalization, share of patients taking the drug (COVID-19 patients [4]; of 1,531 hospitalized COVID-19 cases): 8.82% | COVID-19 Hospitalization, number of patients taking the drug (COVID-19 patients [4]; of 1,531 hospitalized COVID-19 cases, adults over 40): 135 | IRR, COVID-19 Deceased (COVID-19 patients [4]; [10]): 1.85 | IRR, COVID-19 Hospitalization (COVID-19 patients [4]; [10]): 1.26 | Follow-up days, median (COVID-19 patients [5]): 5.0 days | High Flow Oxygen, % (COVID-19 patients [5]): (19%) | ICU admission, % (COVID-19 patients [5]): (30.7%) | Mechanically Ventilated/ECMO, % (COVID-19 patients [5]): (12.44%) | Non-invasive positive pressure ventilation, % (COVID-19 patients [5]): (7.3%) | Oxygen Supplementation, % (COVID-19 patients [5]): (38%) | Follow-up days, median (IQR) (COVID-19 patients [6]; median, drug users after PSM): 4.8 days | High Flow Oxygen, % (COVID-19 patients [6]; share of drug users after PSM): (15.6%) | ICU admission, % (COVID-19 patients [6]; share of drug users after PSM): (16.3%) | Mechanically Ventilated/ECMO, % (COVID-19 patients [6]; share of drug users after PSM): (10.4%) | Non-invasive positive pressure ventilation, % (COVID-19 patients [6]; share of drug users after PSM): (2.2%) | Oxygen Supplementation, % (COVID-19 patients [6]; share of drug users after PSM): (42.2%) | ICU admission rates (COVID-19 patients [6]; [11]): higher ICU admission rate and respiratory interventions | length of hospitalization (COVID-19 patients [6]; [11]): longer hospitalizations | mortality rates (COVID-19 patients [6]; [11]): higher mortality rates | respiratory intervention rates (COVID-19 patients [6]; [11]): higher ICU admission rate and respiratory interventions | aHR, ICU admission (COVID-19 patients [7]; [12]): 1.1 | aHR, acute cardiac injury (COVID-19 patients [7]; [12]): 1.1 | aHR, acute kidney injury (COVID-19 patients [7]; [12]): 0.48 | aHR, acute liver injury (COVID-19 patients [7]; [12]): 0.76 | aHR, invasive mechanical ventilation (COVID-19 patients [7]; [12]): 1.3 | aHR, septic shock (COVID-19 patients [7]; [12]): 1.6 | IR, ICU admission (COVID-19 patients [7]; [13]): 0.37 versus 0.31 100-person-day | IR, acute cardiac injury (COVID-19 patients [7]; [13]): 0.25 versus 0.36 100-person-day | IR, acute kidney injury (COVID-19 patients [7]; [13]): 0.18 versus 0.37 100-person-day | IR, acute liver injury (COVID-19 patients [7]; [13]): 0.05 versus 0.11 100-person-day | IR, septic shock (COVID-19 patients [7]; [13]): 0.16 versus 0.12 100-person-day | IR, invasive mechanical ventilation (COVID-19 patients [7]; incidence rate in treatment group (first figure of 'x versus y'; second is the non-treatment group)): 0.15 versus 0.12 100-person-day | IRR, ICU admission (COVID-19 patients [7]; [14]): 1.2 | IRR, acute cardiac injury (COVID-19 patients [7]; [14]): 0.69 | IRR, acute kidney injury (COVID-19 patients [7]; [14]): 0.47 | IRR, acute liver injury (COVID-19 patients [7]; [14]): 0.43 | IRR, invasive mechanical ventilation (COVID-19 patients [7]; [14]): 1.3 | IRR, septic shock (COVID-19 patients [7]; [14]): 1.3 | circulating CRP levels (inflammation) (COVID-19 patients [8]): no significant differences | lymphocyte counts (COVID-19 patients [8]): lower lymphocyte count during the recovery period | neutrophil counts (COVID-19 patients [8]): lower initial neutrophil counts but relativity similar response to their PSM-matched controls

CN(CCOc1ccc(CC2SC(=O)NC2=O)cc1)c1ccccn1 (stereo not shown) [Rosiglitazone]
effect on SARS-CoV-2 infected primary cells (FIG. 4C-G) (SARS-CoV-2): no effect
